Source: US10350204B2, “Methods for treating cognitive deficits associated with fragile X syndrome” (Wisconsin Alumni Research Foundation, priority 2015, dated 2019)

Columns and labels:
[1] = tested on: Fmr1 KO and wildtype NPCs; assay: Western blot analyses of p-AKT, p-MDM2, MDM2 and P53 in NPCs; type: cell-based, mouse
Procedure: NPCs were isolated from the dentate gyms of 8 to 10-week-old male Fmr1 KO mice and wild-type (wildtype) littermate controls based on our published methods (12, 64). Independently isolated cells serve as biological replicates. Proliferation and differentiation of NPCs was analyzed as described (11, 12, 61). We used only early passage cells (between passage 4 and 10) and only the same passage numbers of wildtype and Fmr1 KO cells. For each experiment, triplicate wells of cells were analyzed, and results were averaged as one data point (n=1). At least 3 independent biological replicates were used (n=3) for statistical analyses.
Protein samples were separated on SDS-PAGE gels (Bio-Rad), transferred to PVDF membranes (Millipore), and incubated with primary antibodies. After incubation with fluorescence-labeled secondary antibodies (Li—CoR), the membranes were imaged using Li—CoR and quantification was performed using ImageJ software. At least n=3 independent blots were used for statistical analysis.
For loading controls, membranes were probed with the mouse antibody against GAPDH.

[2] = tested on: Fmr1 KO and wildtype NPCs; assay: BrdU proliferation assay of cultured NPCs; type: cell-based, mouse
Procedure: We used only early passage cells (between passage 4 and 10) and only the same passage numbers of wild type (WT) and Fmr1 KO cells. For each experiment, triplicate wells of cells were analyzed, and results were averaged as one data point (n=1). At least 3 independent experiments (n=3) were performed and used for statistical analyses for each analysis. To study cell proliferation, we dissociated neural stem cells with trypsin and plated them on poly-L-ornithine and laminin-coated 24 well plate (Scientific fisher, 87721) at a density of 100,000 cells per well in proliferation medium. At 20 h post-plating, 5 μM 5-bromo-2.′-deoxyuridine (BrdU, Sigma-Aldrich) was added into the culture medium for 6 h. NPCs were then washed with PBS and fixed with 4% paraformaldehyde for 30 min at room temperature, followed by immunohistochemical analysis. To detect BrdU incorporation, fixed cells were pretreated with 1M HCl for 30 min at 37° C., and then washed with borate buffer, pH 8.5, for 30 min. We then followed our standard immunohistochemistry protocol^10. BrdU incorporation assay was determined using an Operetta high content imaging system (PerkinElmer, Inc) and Harmony quantification software (PerkinElmer, Inc). The percentage of proliferating cells was defined as the number of BrdU-labeled cells divided by total DAPI-positive cells.
For proliferation assay in vitro, 1 μM MK2206 (Selleckchem, S1078) (AKT phosphorylation inhibitor), or 2 μM Nutlin-3 (Nt3, Selleckchem, 51061) (Mdm2 inhibitor), or 1 μM RG7112 (Selleckchem, S7030) (Mdm2 inhibitor) or YH239-EE (Selleckchem 57489) (4 μM) (Mdm2 inhibitor) was added to proliferating NPCs at 6 hours post-plating. Cells were then pulse labeled 18 hours later with 5 μM 5-bromo-2′-deoxyuridine (BrdU, Sigma-Aldrich, B5002) and incubated for 6 hours in the presence of inhibitor, followed by fixation, staining, and quantification.

[3] = Overall health and body weight of treated mice; type: in vivo, mouse; conditions: wildtype and Fmr1 KO mice; Nutlin-3 10 mg/kg, 5 injections
Procedure: All animal procedures were performed according to protocols approved by the University of Wisconsin-Madison Care and Use Committee. All mice were on C57B/L6 genetic background. The Fmr1 KO/Nestin-GFP mice (Fmr1−/y::Nestin-GFP) were created by crossing female Fmr1 heterozygous KO mice (Fmr1+/−) (59) with homozygous Nestin-GFP transgenic males (60). Generation of FMRP inducible conditional mutant mice (Fmr1loxP/y::Nestin-CreERT2::Rosa26-tdt) and tamoxifen injections to induce recombination were performed as described (12). To induce recombination, mice (6-weeks old) received Tamoxifen (Sigma-Aldrich) daily for 5 d (160 mg/kg) as described (12). Nutlin-3 (10 mg/kg) was given to 7-8 week-old mice or 20-week old mice through IP injections every other day for 5 injections and sacrificed at either 24 hours, 4 weeks, 12, or 20 weeks after the last injection. For NSC differentiation analysis, mice also received four BrdU injections (100 mg/kg) between day 2 and 3 of Nutlin-3 injections. To induce recombination in FMRP inducible conditional mutant mice (Fmr1^loxP/y::Nestin-CreER^T2::Rosa26-tdt) mice, mice 6-weeks old male mice received Tamoxifen (Sigma-Aldrich) daily for 5 days (160 mg kg-1 i.p., 30 mg ml^−1 in 10% ethanol mixed with sunflower oil, SigmaAldrich) based on a published procedure (13). BrdU (Sigma-Aldrich, B5002) was made in a concentration of 20 mg/mL in PBS. […]

[4] = tested on: Fmr1 KO and wildtype NPCs; assay: Cell death analysis (PI/Hoechst, CellTiter-Glo viability) of NPCs; type: cell-based, mouse; conditions: 2 μM Nutlin-3
Description: Three different methods were used to assay cell death. Fluorescein isothiocyanate and propidium iodide (Annexin V-FITC Apoptosis Detection Kit, Sigma, #APOAF) were used to assess NSC apoptosis. Intact cells were Annexin V^−PI^−. Early and late apoptotic cells were Annexin V^+PI^− and Annexin V^+PI^+, respectively. Necrotic cells were Annexin V−PI+. The number of early apoptotic cells (Annexin V^+PI^−; Phase II) and late apoptotic cells (Annexin V^+PI^+, Phase I) were used to calculate the percentage of apoptotic cells. In a second method, propidium iodide (1 mg/mL) and […] (1 mM) were added to cultured cells for 15 min, followed by high content imaging analysis (Oppretta, GE) to quantify the percentage of Hoechst positive (all) cells that are PI positive (dead) cells. In the third method, Cell viability was measured using CellTiter-Glo Luminescent Cell Viability Assay (Promega). 2 μM Nutlin-3 (Nt3, Selleckchem, 51061) was added to proliferating aNPCs at 6 hours post-plating. Cells were then harvested 24 hours later with CellTiter-Glo buffer at room temperature. Signal intensity was immediately measured using a Glomax plate reader (Promega) according to manufacturer's instruction.

[5] = tested on: NSCs of Fmr1 KO and wildtype mice; assay: In vivo cell fate analysis of BrdU+ cells (NeuN, S100β); set-up: species or system mouse; conditions: 10 mg/kg, 5 injections, analyzed 4 weeks after last treatment
Procedure: All animal procedures were performed according to protocols approved by the University of Wisconsin-Madison Care and Use Committee. All mice were on C57B/L6 genetic background. The Fmr1 KO/Nestin-GFP mice (Fmr1−/y::Nestin-GFP) were created by crossing female Fmr1 heterozygous KO mice (Fmr1+/−) (59) with homozygous Nestin-GFP transgenic males (60). Generation of FMRP inducible conditional mutant mice (Fmr1loxP/y::Nestin-CreERT2::Rosa26-tdt) and tamoxifen injections to induce recombination were performed as described (12). To induce recombination, mice (6-weeks old) received Tamoxifen (Sigma-Aldrich) daily for 5 d (160 mg/kg) as described (12). Nutlin-3 (10 mg/kg) was given to 7-8 week-old mice or 20-week old mice through IP injections every other day for 5 injections and sacrificed at either 24 hours, 4 weeks, 12, or 20 weeks after the last injection. For NSC differentiation analysis, mice also received four BrdU injections (100 mg/kg) between day 2 and 3 of Nutlin-3 injections. To induce recombination in FMRP inducible conditional mutant mice (Fmr1^loxP/y::Nestin-CreER^T2::Rosa26-tdt) mice, mice 6-weeks old male mice received Tamoxifen (Sigma-Aldrich) daily for 5 days (160 mg kg-1 i.p., 30 mg ml^−1 in 10% ethanol mixed with sunflower oil, SigmaAldrich) based on a published procedure (13). BrdU (Sigma-Aldrich, B5002) was made in a concentration of 20 mg/mL in PBS. Nutlin-3 (Nt3, Cayman Chemical, 10004372) was made in a concentration of 100 mg/mL in dimethyl sulfoxide (DMSO).
Brain tissue processing and histological analysis of mouse brains were performed as described in our publications (11, 12, 61). Briefly mice were euthanized by IP injection of sodium pentobarbital and then transcardially perfused with saline followed by 4% PFA. Brains were dissected out, post-fixed overnight in 4% PFA, and equilibrated in 30% sucrose. 40 μm brain sections were generated using a sliding microtome and stored as floating sections in cryoprotectant solution (glycerol, ethylene glycol, and 0.1M phosphate buffer, pH 7.4, 1:1:2 by volume). We performed immunohistological analysis on 1-in-6 serial floating brain sections (240 μm apart). […]
Phenotypic analysis of tdT+ cells was performed as described 3,4. Briefly, at least 50 tdT+ cells in the DG were randomly selected, and their colocalization with cell-lineage markers (e.g., double labeling with GFAP) was determined using Nikon A1 confocal microscope and quantified using Image J software (NIH). […] Briefly, at least 50 BrdU+ cells in the DG were randomly selected, and the colocalization of BrdU with cell-lineage markers (NeuN or S100β) was determined using Nikon A1 confocal microscope and quantified using Image J software (NIH). […]

SMILES: COc1ccc(C2=N[C@@H](c3ccc(Cl)cc3)[C@@H](c3ccc(Cl)cc3)N2C(=O)N2CCNC(=O)C2)c(OC(C)C)c1 [Nutlin-3]
- P53 expression ([1]; Fmr1 KO NPCs): increased P53
- p-MDM2 (Ser166) ([1]; Fmr1 KO NPCs): did not affect p-MDM2 levels
- P53 expression ([1]; wildtype NPCs): no significant effect on wildtype cells
- p-MDM2 (Ser166) ([1]; wildtype NPCs): did not affect p-MDM2 levels
- cell proliferation (BrdU+ cells) ([2]; Fmr1 KO NPCs, 1 μM MK2206, 2 μM Nutlin-3, 1 μM RG7112, 4 μM YH239-EE): reduced the proliferation
- cell proliferation (BrdU+ cells) ([2]; wildtype NPCs, 1 μM MK2206, 2 μM Nutlin-3): without a significant effect on wildtype NPCs
- overall health and body weight [3]: no significant effect on overall health and body weight
- cell death and survival ([4]; Fmr1 KO NPCs): did not exhibit significant effects on cell death and survival
- cell death and survival ([4]; wildtype NPCs): did not exhibit significant effects on cell death and survival
- astroglial differentiation (S100β+ among BrdU+ cells) ([5]; Fmr1 KO mice): rescued both neuronal and astroglial differentiation
- neuronal differentiation (NeuN+ among BrdU+ cells) ([5]; Fmr1 KO mice): rescued both neuronal and astroglial differentiation
- astroglial differentiation (S100β+ among BrdU+ cells) ([5]; wildtype mice): without any significant effect on wildtype mice
- neuronal differentiation (NeuN+ among BrdU+ cells) ([5]; wildtype mice): without any significant effect on wildtype mice
